Series [1] is described as follows: LogD at pH 7.4. Format: physicochemical. To be noted: buffer.
Series [2] can be described thus: Partition coefficient (logP). Format: physicochemical. To be noted: octanol/water.
The subject of the next series is MCF7. The series is described as follows: Dose required for 30% clonal survival of ER positive MCF-7 breast cancer cells after 2 hr. It is filed as functional, Homo sapiens.
In the next series the test system is MDA-MB-231. The series is described as follows: Dose required for 30% clonal survival of ER negative MDA-MB-231 breast cancer cells after 2 hr. It is filed as functional, Homo sapiens.
The nature of series [3]: Percent of 16-mer cleaved by piperidine after treatment with test compound for 24 hr at 37 degrees C. Format: functional.
For series [4], the target named is Estrogen receptor (Homo sapiens) (UniProt Q92731+P03372). The series is described as follows: Percent of covalently modified 16-mer (DNA adduct) in a slowly migrating complex with ER ligand binding domain (ER-LBD) in EMSA electrophoretic mobility shift assay. It is filed as functional.

Molecules are shown by their SMILES.

For orientation: logD means the decadic logarithm of the distribution of all forms, ionised or not, between an organic phase and buffer at a given pH. The logP is the decadic logarithm of the partition coefficient of the neutral form, usually between octanol and water. A higher logP goes with higher lipophilicity. In turn, `C[C@]12CC[C@@H]3c4ccc(O)cc4C[C@@H](CCCCCCNC(=O)CCCc4ccc(N(CCCl)CCCl)cc4)[C@H]3[C@@H]1CC[C@@H]2O` had a logD in series [1] of 5.07. This molecule yielded a log partition coefficient (logP) in series [2] of 5.07. The ED30 in the series with MCF7 is greater than 20 µM; in the series on MDA-MB-231, 20 µM. In series [3], the Oligo modified was determined as 14%.
In series [1], `C[C@]12CC[C@@H]3c4ccc(O)cc4C[C@@H](CCCCCCOC(=O)NCCCc4ccc(N(CCCl)CCCl)cc4)[C@H]3[C@@H]1CC[C@@H]2O` yielded a logD of 5.61. The molecule also showed a logP in series [2] of 5.61. In addition, the ED30 with MCF7 and in the series with MDA-MB-231 was greater than 20 µM in each case. For the same molecule, the Oligo modified in series [3] turned out to be 3%.
As to `C[C@]12CC[C@@H]3c4ccc(O)cc4C[C@@H](CCCCCCNCC/N=C(/N)NCCCc4ccc(N(CCCl)CCCl)cc4)[C@H]3[C@@H]1CC[C@@H]2O`, the logD in series [1] worked out at 3.12. Further, the lipophilicity (logP) in series [2] turned out to be 6.27. In addition, the ED30 with MCF7 and in the series with MDA-MB-231 was greater than 20 µM each time. The Oligo shifted in series [4] came to 93%. Besides, the Oligo modified in series [3] is 29%.
With `C[C@]12CC[C@@H]3c4ccc(O)cc4C[C@@H](CCCCCCNCCCCc4ccc(N(CCCl)CCCl)cc4)[C@H]3[C@@H]1CC[C@@H]2O`, in series [1], the log distribution coefficient (logD) was determined as 2.87. The lipophilicity (logP) in series [2] was found to be 5.96. Further, the figures for the ED30 with MCF7 and in the series on MDA-MB-231 were 5.1 µM and 8.6 µM, respectively. The Oligo shifted in series [4] is 67%. In series [3], this molecule yielded an Oligo modified of 44%.
The molecule `C[C@]12CC[C@@H]3c4ccc(O)cc4C[C@@H](CCCCCCNC(=O)CCCNC(=O)CCCc4ccc(N(CCCl)CCCl)cc4)[C@H]3[C@@H]1CC[C@@H]2O` registered a logD in series [1] of 4.85. The molecule also had a logP in series [2] of 4.85. For the same molecule, the ED30 in the series on MCF7 and in the series with MDA-MB-231 was greater than 20 µM each time. The Oligo modified in series [3] came to 39%.
The molecule `C[C@]12CC[C@@H]3c4ccc(O)cc4C[C@@H](CCCCCC/N=C(/N)NCCCc4ccc(N(CCCl)CCCl)cc4)[C@H]3[C@@H]1CC[C@@H]2O` displayed a logD in series [1] of 2.52. This molecule also showed a log partition coefficient (logP) in series [2] of 5.67. The ED30 in the series with MCF7 and in the series on MDA-MB-231 was greater than 20 µM each time. Moreover, the Oligo shifted in series [4] was 38%. In series [3], the Oligo modified was 58%.
The molecule `C[C@]12CC[C@@H]3c4ccc(O)cc4C[C@@H](CCCCCCNCCOC(=O)NCCCc4ccc(N(CCCl)CCCl)cc4)[C@H]3[C@@H]1CC[C@@H]2O` returned a log distribution coefficient (logD) in series [1] of 2.22. Further, in series [2], the lipophilicity (logP) is 5.32. Besides, the ED30 amounted to 5.1 µM in the series on MCF7 and 9.6 µM in the series on MDA-MB-231. For the same molecule, the Oligo shifted in series [4] was 93%. In series [3], this molecule registered an Oligo modified of 45%.
In series [1], `C[C@]12CC[C@@H]3c4ccc(O)cc4C[C@@H](CCCCCCNCCCCNCCCCc4ccc(N(CCCl)CCCl)cc4)[C@H]3[C@@H]1CC[C@@H]2O` displayed a logD of 2.22. Further, the logP in series [2] was found to be 5.32. Also, the ED30 with MCF7 was found to be 5.1 µM; in the series on MDA-MB-231, 7.9 µM. Besides, in series [4], the Oligo shifted amounted to 38%. This molecule showed an Oligo modified in series [3] of 79%.

The record behind these values is ChEMBL document CHEMBL1146816, “Design, synthesis, and evaluation of estradiol-linked genotoxicants as anti-cancer agents” (Bioorg Med Chem Lett, 2004).
